The target of experiment [1] is Human MER (residues 528-999) (Homo sapiens (Human), UniProt Q12866). Nature of the experiment: Human Mer kinase assay, HTRF KinEase (Example C-2). Type of experiment: biochemical. In short, it runs like this:
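Recombinant MER 528-999 (1 ng/well) in buffer with 5 mM MgCl2 and 1 mM DTT was reacted with biotinylated peptide and ATP at Km (40 μM) for 60 min at room temperature. EDTA stop with SA-XL665 and Eu3+ TK antibody, then 665/620 nm HTRF read; IC50 from 4-parameter fit.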
On the technique in general: TR-FRET usually uses a lanthanide donor and a delayed reading to cut background.

The target in experiment [2] is Mer (phospho-Mer, MERTK-transfected 293A cells) (Homo sapiens (Human), UniProt Q12866). As to the kind of experiment: Mer autophosphorylation ELISA in transient transfected 293A cells (Example H). The experiment is classed as cell-based. The settings on record: cellular activity; Mer autophosphorylation ELISA in transient transfected 293A cells. Summed up: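 293A cells transiently transfected with human MERTK were treated 1 h in serum-free medium with an 8-point compound dilution (0.3% DMSO final). Lysates were assayed by phospho-Mer sandwich ELISA against a phospho-Mer standard; IC50 came from a 4-parameter logistic fit, normalised to DMSO (100%) and reference-inhibitor (0%) controls.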
Chain of Mer (phospho-Mer, MERTK-transfected 293A cells) (Q12866 21-999): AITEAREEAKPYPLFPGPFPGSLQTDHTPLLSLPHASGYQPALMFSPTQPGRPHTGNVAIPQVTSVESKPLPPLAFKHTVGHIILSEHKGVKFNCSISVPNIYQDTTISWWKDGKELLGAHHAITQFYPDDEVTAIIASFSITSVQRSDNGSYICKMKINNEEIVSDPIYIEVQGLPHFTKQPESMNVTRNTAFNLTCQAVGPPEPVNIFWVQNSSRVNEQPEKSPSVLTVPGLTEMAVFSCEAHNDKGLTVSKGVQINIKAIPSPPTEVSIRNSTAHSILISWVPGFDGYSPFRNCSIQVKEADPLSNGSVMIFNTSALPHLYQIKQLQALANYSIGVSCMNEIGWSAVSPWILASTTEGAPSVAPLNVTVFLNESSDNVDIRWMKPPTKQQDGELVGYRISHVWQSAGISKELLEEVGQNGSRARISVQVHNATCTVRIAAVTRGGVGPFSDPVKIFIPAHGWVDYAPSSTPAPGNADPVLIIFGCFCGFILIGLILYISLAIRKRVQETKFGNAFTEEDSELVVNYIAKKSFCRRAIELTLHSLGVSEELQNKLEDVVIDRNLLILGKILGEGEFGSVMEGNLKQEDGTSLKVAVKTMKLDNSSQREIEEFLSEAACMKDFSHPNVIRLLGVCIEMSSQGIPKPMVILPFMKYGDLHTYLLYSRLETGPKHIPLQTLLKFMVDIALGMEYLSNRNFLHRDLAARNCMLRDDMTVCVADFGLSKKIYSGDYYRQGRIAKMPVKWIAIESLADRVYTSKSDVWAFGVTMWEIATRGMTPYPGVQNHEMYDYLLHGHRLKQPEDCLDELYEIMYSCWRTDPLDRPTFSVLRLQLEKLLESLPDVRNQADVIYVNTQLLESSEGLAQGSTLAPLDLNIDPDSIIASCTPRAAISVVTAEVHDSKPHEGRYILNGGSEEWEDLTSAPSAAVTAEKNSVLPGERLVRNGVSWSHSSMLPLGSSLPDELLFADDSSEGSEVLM

Experiment [3] concerns the target Human KDR (residues 790-1356) (Homo sapiens (Human), UniProt P35968). Nature of the experiment: Human KDR kinase assay, HTRF KinEase (Example B-2). The experiment is classed as biochemical. Summed up: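 Human KDR residues 790-1356 (0.1 ng/well) in buffer with 5 mM MgCl2, 1 mM MnCl2, 1 mM DTT, biotinylated peptide substrate, ATP at Km (4.0 μM), 3% DMSO, 10 compound concentrations; 40 min, room temperature. EDTA stop, streptavidin-XL665/Eu-TK antibody HTRF read 665/620 nm; 4-parameter IC50.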

Experiment [4] deals with Human MET (residues 956-1390) (Homo sapiens (Human), UniProt P08581). Nature of the experiment: Human Met kinase assay, HTRF KinEase (Example D-2). The experiment is classed as biochemical. Conditions: read-out: c-Met IC50. In short, it runs like this: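 MET kinase domain (956-1390), 0.1 ng/well, in buffer with 5 mM MgCl2, 1 mM DTT and 1 mM MnCl2, phosphorylated a biotinylated peptide at ATP Km for 40 min at RT; 10 concentrations, 3% DMSO final. EDTA-stopped HTRF read after 60 min; IC50 from a 4-parameter logistic fit.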
Chain of Human MET (residues 956-1390) (P08581 956-1390): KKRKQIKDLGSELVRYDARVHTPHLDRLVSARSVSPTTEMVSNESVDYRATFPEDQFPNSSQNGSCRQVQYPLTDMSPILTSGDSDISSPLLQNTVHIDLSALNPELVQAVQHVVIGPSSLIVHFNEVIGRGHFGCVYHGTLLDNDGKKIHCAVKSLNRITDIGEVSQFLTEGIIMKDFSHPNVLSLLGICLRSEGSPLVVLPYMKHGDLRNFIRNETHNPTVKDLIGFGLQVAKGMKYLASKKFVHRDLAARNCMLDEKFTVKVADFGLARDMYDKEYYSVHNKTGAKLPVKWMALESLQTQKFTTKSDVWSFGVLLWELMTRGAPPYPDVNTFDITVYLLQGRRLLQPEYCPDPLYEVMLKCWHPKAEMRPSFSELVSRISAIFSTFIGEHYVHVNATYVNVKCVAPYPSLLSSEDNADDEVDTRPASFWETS

Where [5] appears, read: protocol of Example C-2 (other compounds).
[6] abbreviates: protocol of Example B-2 (other compounds).
Where [7] appears, read: protocol of Example D-2 (other compounds).

The structures appear in SMILES notation. pIC50: −log10 of the molar value. Where two headings read alike, the source gives them in different places. Where only a bound is given, the exact number is not on record here.

The pIC50 is the negative decadic logarithm of the IC50, by convention in mol/L.

Chain of Human MER (residues 528-999) (Q12866 528-999): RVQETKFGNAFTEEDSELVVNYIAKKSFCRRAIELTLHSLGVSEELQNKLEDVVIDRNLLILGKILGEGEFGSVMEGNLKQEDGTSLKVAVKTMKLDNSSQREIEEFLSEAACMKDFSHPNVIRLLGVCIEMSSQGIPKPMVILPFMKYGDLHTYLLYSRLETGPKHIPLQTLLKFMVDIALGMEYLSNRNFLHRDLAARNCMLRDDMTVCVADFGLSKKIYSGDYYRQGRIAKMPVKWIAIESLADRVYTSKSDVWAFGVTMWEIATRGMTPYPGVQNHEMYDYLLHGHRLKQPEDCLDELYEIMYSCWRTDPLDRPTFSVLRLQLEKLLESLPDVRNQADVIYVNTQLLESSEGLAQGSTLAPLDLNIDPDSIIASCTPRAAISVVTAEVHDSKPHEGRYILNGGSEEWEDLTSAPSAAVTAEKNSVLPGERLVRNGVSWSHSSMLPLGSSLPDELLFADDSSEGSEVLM
Chain of Human KDR (residues 790-1356) (P35968 790-1356): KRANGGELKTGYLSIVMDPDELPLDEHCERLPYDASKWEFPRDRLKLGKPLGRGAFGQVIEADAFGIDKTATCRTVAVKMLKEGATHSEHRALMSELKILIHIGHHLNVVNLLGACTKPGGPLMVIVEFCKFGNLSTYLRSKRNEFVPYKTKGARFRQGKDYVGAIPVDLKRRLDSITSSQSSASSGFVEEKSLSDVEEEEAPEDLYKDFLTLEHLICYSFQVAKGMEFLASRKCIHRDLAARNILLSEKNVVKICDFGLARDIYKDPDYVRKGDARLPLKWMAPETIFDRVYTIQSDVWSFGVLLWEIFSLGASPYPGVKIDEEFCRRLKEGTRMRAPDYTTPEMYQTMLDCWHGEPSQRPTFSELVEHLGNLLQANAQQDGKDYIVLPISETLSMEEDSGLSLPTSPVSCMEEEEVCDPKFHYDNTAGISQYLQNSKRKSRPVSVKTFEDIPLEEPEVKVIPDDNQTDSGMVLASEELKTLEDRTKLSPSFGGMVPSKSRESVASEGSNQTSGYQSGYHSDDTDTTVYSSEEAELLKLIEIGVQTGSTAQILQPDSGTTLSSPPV

As for `CCn1cc(C(=O)Nc2ccc(Oc3ccnc4cc(OC)c(OC)nc34)cc2)c(=O)c(-c2ccc(F)cc2)c1C` [Compound 168, N-[4-[(6,7-Dimethoxy-1,5-naphthyridin-4-yl)oxy]phenyl]-1-ethyl-5-(4-fluorophenyl)-6-methyl-4-oxopyridine-3-carboxamide], the pIC50 in experiment [1] (setting [5]) was above 7.00; in experiment [2] it was above 7.00; in experiment [3] (setting [6]) it was 6.52 to 7.00; in experiment [4] (setting [7]), above 7.00.

In the case of `CCn1cc(C(=O)Nc2ccc(Oc3ccnc4cc(OC)cnc34)cc2)c(=O)c(-c2ccc(F)cc2)c1` [Compound 169, 1-Ethyl-5-(4-fluorophenyl)-N-[4-[(7-methoxy-1,5-naphthyridin-4-yl)oxy]phenyl]-4-oxopyridine-3-carboxamide], the pIC50 in experiment [1] (setting [5]) was above 7.00; in experiment [2] it was above 7.00; in experiment [3] (setting [6]) it was below 6.52; in experiment [4] (setting [7]), above 7.00.

For the compound `CCn1cc(C(=O)Nc2ccc(Oc3ccnc4cc(OC)cnc34)c(F)c2)c(=O)c(-c2ccc(F)cc2)c1` [Compound 170, 1-Ethyl-N-[3-fluoro-4-[(7-methoxy-1,5-naphthyridin-4-yl)oxy]phenyl]-5-(4-fluorophenyl)-4-oxopyridine-3-carboxamide], the pIC50 in experiment [1] (setting [5]) is above 7.00; in experiment [2], above 7.00; in experiment [3] (setting [6]), below 6.52; in experiment [4] (setting [7]), above 7.00.

Take `COc1cc2nccc(Oc3ccc(NC(=O)c4cnc(C)c(-c5ccc(F)cc5)c4O)cc3)c2cc1OC` [Compound 171, N-[4-(6,7-Dimethoxyquinolin-4-yl)oxyphenyl]-5-(4-fluorophenyl)-4-hydroxy-6-methylpyridine-3-carboxamide]: the pIC50 in experiment [1] (setting [5]), in experiment [2], in experiment [3] (setting [6]) and in experiment [4] (setting [7]) was above 7.00 each time.

With `COc1ccc2nccc(Oc3ccc(NC(=O)c4cnc(C)c(-c5ccc(F)cc5)c4O)cc3F)c2n1` [Compound 172, N-[3-Fluoro-4-[(6-methoxy-1,5-naphthyridin-4-yl)oxy]phenyl]-5-(4-fluorophenyl)-4-hydroxy-6-methylpyridine-3-carboxamide], the pIC50 in experiment [1] (setting [5]) is above 7.00; in experiment [2], above 7.00; in experiment [3] (setting [6]), 6.52 to 7.00; in experiment [4] (setting [7]) it was above 7.00.

For `COc1cc2nccc(Oc3ccc(NC(=O)c4c(C)nc(C)c(-c5ccc(F)cc5)c4O)cc3)c2nc1OC` [Compound 173, N-[4-[(6,7-Dimethoxy-1,5-naphthyridin-4-yl)oxy]phenyl]-5-(4-fluorophenyl)-4-hydroxy-2,6-dimethylpyridine-3-carboxamide], the pIC50 in experiment [1] (setting [5]), in experiment [2], in experiment [3] (setting [6]) and in experiment [4] (setting [7]) was above 7.00 each time.

In the case of `COc1cc2nccc(Oc3ccc(NC(=O)c4cnc(C)c(-c5ccc(F)cc5C)c4O)cc3)c2nc1OC` [Compound 174, N-[4-[(6,7-Dimethoxy-1,5-naphthyridin-4-yl)oxy]phenyl]-5-(4-fluoro-2-methylphenyl)-4-hydroxy-6-methylpyridine-3-carboxamide], the negative logarithm of the IC50 (pIC50) in experiment [1] (setting [5]), in experiment [2], in experiment [3] (setting [6]) and in experiment [4] (setting [7]) was above 7.00 each time.

`COc1cnc2c(Oc3ccc(NC(=O)c4cnc(C)c(-c5ccc(F)cc5C)c4O)cc3F)ccnc2c1` [Compound 175, N-[3-Fluoro-4-[(7-methoxy-1,5-naphthyridin-4-yl)oxy]phenyl]-5-(4-fluoro-2-methylphenyl)-4-hydroxy-6-methylpyridine-3-carboxamide]: the pIC50 in experiment [1] (setting [5]) was above 7.00; in experiment [2] it was above 7.00; in experiment [3] (setting [6]) it was 6.52 to 7.00; in experiment [4] (setting [7]), above 7.00.

As to `COc1cc2nccc(Oc3ccc(NC(=O)c4cnc(N)n(-c5ccc(F)cc5)c4=O)cc3F)c2nc1OC` [Compound 565, 2-Amino-N-[4-[(6,7-dimethoxy-1,5-naphthyridin-4-yl)oxy]-3-fluorophenyl]-1-(4-fluorophenyl)-6-oxopyrimidine-5-carboxamide], the pIC50 in experiment [1] (protocol of Example C-2), in experiment [2], in experiment [3] (protocol of Example B-2) and in experiment [4] (protocol of Example D-2) was above 7.00 in each case.

As for `CCn1nc(C(=O)Nc2ccc(Oc3ccnc4cc(OC)c(OC)nc34)c(F)c2)c(=O)c(-c2ccc(F)cc2)c1C` [Compound 568, N-[4-[(6,7-Dimethoxy-1,5-naphthyridin-4-yl)oxy]-3-fluorophenyl]-1-ethyl-5-(4-fluorophenyl)-6-methyl-4-oxopyridazine-3-carboxamide], the pIC50 in experiment [1] (protocol of Example C-2), in experiment [2], in experiment [3] (protocol of Example B-2) and in experiment [4] (protocol of Example D-2) was above 7.00 throughout.

On to `Cc1ncc(C(=O)Nc2ccc(Oc3ccnc4cc(C(N)=O)cnc34)c(F)c2)c(O)c1-c1ccc(F)cc1` [Compound 577, 8-[2-Fluoro-4-[[5-(4-fluorophenyl)-4-hydroxy-6-methylpyridine-3-carbonyl]amino]phenoxy]-1,5-naphthyridine-3-carboxamide], for which the pIC50 in experiment [1] (protocol of Example C-2) was above 7.00; in experiment [2] it was 6.52 to 7.00; in experiment [3] (protocol of Example B-2) it was above 7.00; in experiment [4] (protocol of Example D-2), above 7.00.

Regarding `CNC(=O)c1cnc2c(Oc3ccc(NC(=O)c4cnc(C)c(-c5ccc(F)cc5)c4O)cc3F)ccnc2c1` [Compound 578, 8-[2-Fluoro-4-[[5-(4-fluorophenyl)-4-hydroxy-6-methylpyridine-3-carbonyl]amino]phenoxy]-N-methyl-1,5-naphthyridine-3-carboxamide], the pIC50 in experiment [1] (protocol of Example C-2) was above 7.00; in experiment [2], below 6.52; in experiment [3] (protocol of Example B-2) it was 6.52 to 7.00; in experiment [4] (protocol of Example D-2), above 7.00.

In the case of `COc1cc2nccc(Oc3ccc(NC(=O)c4cn(C(C)C)c(C)c(-c5ccc(F)cc5)c4=O)cc3F)c2nc1N` [Compound 579, N-[4-[(6-Amino-7-methoxy-1,5-naphthyridin-4-yl)oxy]-3-fluorophenyl]-5-(4-fluorophenyl)-6-methyl-4-oxo-1-propan-2-ylpyridine-3-carboxamide], the pIC50 in experiment [1] (protocol of Example C-2) was above 7.00; in experiment [2], above 7.00; in experiment [3] (protocol of Example B-2), below 6.52; in experiment [4] (protocol of Example D-2) it was above 7.00.

`COc1cc2nccc(Oc3ccc(NC(=O)c4cn(C(C)C)c(C)c(-c5ccc(F)cc5)c4=O)cc3F)c2nc1O` [Compound 580, N-[3-Fluoro-4-[(6-hydroxy-7-methoxy-1,5-naphthyridin-4-yl)oxy]phenyl]-5-(4-fluorophenyl)-6-methyl-4-oxo-1-propan-2-ylpyridine-3-carboxamide]: the negative-log IC50 (pIC50) in experiment [1] (protocol of Example C-2) is above 7.00; in experiment [2], above 7.00; in experiment [3] (protocol of Example B-2), below 6.52; in experiment [4] (protocol of Example D-2) it was above 7.00.

Consider `COc1cc2nccc(Oc3ccc(NC(=O)c4cn(C(C)C)c(C)c(-c5ccc(F)cc5)c4=O)cc3F)c2nc1NS(C)(=O)=O` [Compound 581, N-[3-Fluoro-4-[[6-(methanesulfonamido)-7-methoxy-1,5-naphthyridin-4-yl]oxy]phenyl]-5-(4-fluorophenyl)-6-methyl-4-oxo-1-propan-2-ylpyridine-3-carboxamide], for which the pIC50 in experiment [1] (protocol of Example C-2), in experiment [2], in experiment [3] (protocol of Example B-2) and in experiment [4] (protocol of Example D-2) was above 7.00 each time.

`CNc1nc2c(Oc3ccc(NC(=O)c4cn(C(C)C)c(C)c(-c5ccc(F)cc5)c4=O)cc3F)ccnc2cc1OC` [Compound 582, N-[3-Fluoro-4-[[7-methoxy-6-(methylamino)-1,5-naphthyridin-4-yl]oxy]phenyl]-5-(4-fluorophenyl)-6-methyl-4-oxo-1-propan-2-ylpyridine-3-carboxamide]: the pIC50 in experiment [1] (protocol of Example C-2), in experiment [2], in experiment [3] (protocol of Example B-2) and in experiment [4] (protocol of Example D-2) was above 7.00 in each case.

Regarding `COc1cc2nccc(Oc3ccc(NC(=O)c4cnc(C)c(-c5ccc(F)cc5)c4O)cc3F)c2nc1NS(C)(=O)=O` [Compound 584, N-[3-Fluoro-4-[[6-(methanesulfonamido)-7-methoxy-1,5-naphthyridin-4-yl]oxy]phenyl]-5-(4-fluorophenyl)-4-hydroxy-6-methylpyridine-3-carboxamide], the pIC50 in experiment [1] (protocol of Example C-2) was above 7.00; in experiment [2] it was 6.52 to 7.00; in experiment [3] (protocol of Example B-2), above 7.00; in experiment [4] (protocol of Example D-2), above 7.00.

Consider `CNc1c(-c2ccc(F)cc2)c(=O)c(C(=O)Nc2ccc(Oc3ccnc4cc(OC)cnc34)c(F)c2)cn1C` [Compound 585, N-[3-Fluoro-4-[(7-methoxy-1,5-naphthyridin-4-yl)oxy]phenyl]-5-(4-fluorophenyl)-1-methyl-6-(methylamino)-4-oxopyridine-3-carboxamide], for which the pIC50 in experiment [1] (protocol of Example C-2) is above 7.00; in experiment [2], above 7.00; in experiment [3] (protocol of Example B-2), below 6.52; in experiment [4] (protocol of Example D-2) it was above 7.00.

Values taken from patent US12371428B2 (Exelixis, Inc., priority 2019, dated 2025).
